This is an account of results in patent publication US20230000852A1, “Treatment of Dermal Cytokine Storm Syndromes” (Bridge Pharma, Inc., priority 2021, published 2023).

One data set relates to INF-γ. Nature of the data set: PHA-induced INF-γ release from human leucocytes (buffy coats). It is filed as cell-based. The following applies: Leucocyte, 30 min pre-incubation, PHA 5 μg/ml 16 hours. The procedure: (§1) The objective of this study was to assess the ability of norketotifen to inhibit cytokine release from stimulated human leucocytes.
(§2) The study was conducted in two phases. The first phase included optimization of the test methodology and including dose-range finding studies, using buffy coats from 3 human donors, stimulated with phytohemagglutinin (PHA). Following optimization of the test conditions, a final protocol was issued. In the ensuing Main Study, white blood cells (buffy coats) from 5 healthy human donors were stimulated with PHA, 5 μg/ml. The concentrations of the test article and the duration of exposure were optimized to obtain acceptable dose-response ratios. Thus, the inhibitory effects of three concentrations of NK and one concentration of ketotifen were evaluated in the Main Study. The buffy coats containing white blood cells from 5 male human donors were resuspended in assay media and were pre-incubated for 30 min with either vehicle/saline, ketotifen 4.3 μg/ml (10 μM) and norketotifen 0.4 μg/ml, 4.1 μg/ml and 41 μg/ml (1.0; 10 and 100 μM). Following these preincubations, the white blood cells were stimulated for 16 hours with PHA, 5 μg/ml. The cell system supernatants were then harvested and stored frozen pending analyses.
(§3) The concentration of the test articles had to be high in this ex vivo study since the test kit used a high concentration of the agonist PHA (5 μg/ml) and a long exposure time (16 hrs).

Another data set concerns IL-10. Nature of the data set: PHA-induced IL-10 release from human leucocytes (buffy coats). Type of data set: cell-based. To be noted: Leucocyte, 30 min pre-incubation, PHA 5 μg/ml 16 hours. The procedure: as §1, §2, §3
The nature of data set [1]: Dermal and plasma concentrations of NK after oral dosing to dogs. It is filed as in vivo. How it is done:
The purpose was to determine drug concentrations and calculate pharmacokinetics in the skin and plasma of dogs during and following daily oral administration of S-NK-HF (the S-isomer of norketotifen hydrogen fumarate) for four weeks.
Five male beagle dogs, weighing 11.2-13.9 kg (2-4 years old) were included in the study. All animals were administered p.o. doses of the test article 8.0 mg/kg/day as a hydrogen fumarate salt, equal to 5.6 mg/kg/day of the free base. A single isomer of NK was used, since an objective of this study was also to assess the racemization of the NK isomers. The animals were dosed once daily for four weeks followed by daily observations and tissue sampling for an additional two-week washout period.
Multiple plasma samples and skin biopsies were taken from each dog on Day 1 and Day 28 of drug administration. The plasma and skin samplings were performed at pre-dose, and at 2, 6, 12, and 24 hours post-dose. Plasma and skin samples were also taken intermittently at predetermined intervals during the 28-days dosing period and up to the last day of the study, which was Day 42. Blood samples were taken from v. cephalica antebrachii. Skin biopsies were taken from the area between the mid ventral to lateral abdominal areas, using a 6 mm skin biopsy punch. Subcutaneous fat deposits were carefully trimmed from the skin samples and the skin samples were then weighed. All plasma and skin samples were analyzed using LC/MS/MS methodology.

Read-outs that look alike come from different tables or passages of the source.

In the case of `O=C1Cc2ccccc2C(=C2CCNCC2)c2ccsc21` (racemic) [NK, norketotifen], the inhibition at 1 µM came to 0% with INF-γ (1 uM) and 12.7% with IL-10 (1 uM). Further, the inhibition at 10 µM in the data set with INF-γ (10 uM) is 16.5%; with IL-10 (10 uM) it was 24.8%. The values for the inhibition at 100 µM in the data set on INF-γ (100 uM) and with IL-10 (100 uM) were 71.6% and 90.4%, respectively. The half-life in data set [1] (male, beagle, dog, plasma, oral, 8 mg/kg/day, plasma, read-out: Plasma half-life) was 600 to 660 min; in data set [1] (male, beagle, dog, plasma, po, 8 mg/kg/day, oral S-NK 8.0 mg/kg/day for 28 days, dogs (N = 5), plasma, read-out: T1/2 Plasma (converted)), 630 min; in data set [1] (male, beagle, dog, skin, oral, 8 mg/kg/day, skin, read-out: Dermal half-life (duration of high concentration in the skin)) it was not above 10100 min; in data set [1] (male, beagle, dog, skin, po, 8 mg/kg/day, oral S-NK 8.0 mg/kg/day for 28 days, dogs (N = 5), skin, read-out: T1/2 Skin (converted)), 10100 min. The Kp in data set [1] (male, beagle, dog, skin, oral, 8 mg/kg/day, under laboratory conditions, read-out: Skin concentration relative to plasma concentration) was not above 16. For the same compound, the MRT in data set [1] (male, beagle, dog, oral S-NK 8.0 mg/kg/day for 28 days, dogs (N = 5), plasma, read-out: MRT Plasma) is 12.8 h; in data set [1] (male, beagle, dog, oral S-NK 8.0 mg/kg/day for 28 days, dogs (N = 5), skin, read-out: MRT Skin), 169 h. Besides, the “AUC∞ Plasma” value in data set [1] (oral S-NK 8.0 mg/kg/day for 28 days, dogs (N = 5), plasma) is on record as 3286 ng*hr/mL or g. Also, the “AUC∞ Skin” value in data set [1] (oral S-NK 8.0 mg/kg/day for 28 days, dogs (N = 5), skin) is given as 54187 ng*hr/mL or g. For the same compound, in data set [1] (skin of dogs), the “Dermal half-life in skin of dogs (in words)” value is listed as “one week”.
